Source: ChEMBL document CHEMBL5303573, “Mapping human microbiome drug metabolism by gut bacteria and their genes” (Nature, 2019)

What was measured:
[1] = The drug is tested on Clostridium asparagiforme strain: DSM15981 for biotransformation. The drug concentrations were measured before and after a 12-h incubation by liquid-chromatography-coupled mass spectrometry (LC–MS); format: ADME; set-up: dose 2 uM, timepoint 0 vs 12 hours; conditions: enterocloster asparagiformis, 2 µM
[2] = bacteroides eggerthii, 12 h, 2 µM
Description: The drug is tested on Bacteroides eggerthii strain: DSM20697 for biotransformation. The drug concentrations were measured before and after a 12-h incubation by liquid-chromatography-coupled mass spectrometry (LC–MS)

[3] = bacteroides intestinalis, 12 h, 2 µM
Description: The drug is tested on Bacteroides intestinalis strain: DSM17393 for biotransformation. The drug concentrations were measured before and after a 12-h incubation by liquid-chromatography-coupled mass spectrometry (LC–MS)

[4] = bacteroides fragilis, 12 h, 2 µM
Description: The drug is tested on Bacteroides fragilis strain: 3397 (T10) for biotransformation. The drug concentrations were measured before and after a 12-h incubation by liquid-chromatography-coupled mass spectrometry (LC–MS)

[5] = roseburia intestinalis, 12 h, 2 µM
Description: The drug is tested on Roseburia intestinalis strain: L1-82 for biotransformation. The drug concentrations were measured before and after a 12-h incubation by liquid-chromatography-coupled mass spectrometry (LC–MS)

[6] = The drug is tested on Clostridium symbiosum strain: ATCC14940 for biotransformation. The drug concentrations were measured before and after a 12-h incubation by liquid-chromatography-coupled mass spectrometry (LC–MS); conditions: 2 µM
[7] = The drug is tested on Bacteroides pectinophilus strain: ATCC43243 for biotransformation. The drug concentrations were measured before and after a 12-h incubation by liquid-chromatography-coupled mass spectrometry (LC–MS); conditions: 2 µM
[8] = The drug is tested on Ruminococcus lactaris strain: ATCC29176 for biotransformation. The drug concentrations were measured before and after a 12-h incubation by liquid-chromatography-coupled mass spectrometry (LC–MS); conditions: 2 µM
[9] = akkermansia muciniphila, 12 h, 2 µM
Description: The drug is tested on Akkermansia muciniphila strain: ATCC BAA-835 for biotransformation. The drug concentrations were measured before and after a 12-h incubation by liquid-chromatography-coupled mass spectrometry (LC–MS)

[10] = The drug is tested on Eggerthella lenta strain: ATCC25559 for biotransformation. The drug concentrations were measured before and after a 12-h incubation by liquid-chromatography-coupled mass spectrometry (LC–MS); conditions: 2 µM
[11] = segatella copri, 12 h, 2 µM
Description: The drug is tested on Prevotella copri strain: DSM18205 for biotransformation. The drug concentrations were measured before and after a 12-h incubation by liquid-chromatography-coupled mass spectrometry (LC–MS)

[12] = The drug is tested on Bifidobacterium ruminantium strain: fecal isolate for biotransformation. The drug concentrations were measured before and after a 12-h incubation by liquid-chromatography-coupled mass spectrometry (LC–MS); conditions: 2 µM
[13] = anaerostipes sp., 12 h, 2 µM
Description: The drug is tested on Anaerostipes sp. strain: fecal isolate for biotransformation. The drug concentrations were measured before and after a 12-h incubation by liquid-chromatography-coupled mass spectrometry (LC–MS)

[14] = bacteroides thetaiotaomicron, 12 h, 2 µM
Description: The drug is tested on Bacteroides thetaiotaomicron strain: VPI-5482 for biotransformation. The drug concentrations were measured before and after a 12-h incubation by liquid-chromatography-coupled mass spectrometry (LC–MS)

[15] = The drug is tested on Bacteroides uniformis strain: ATCC8492 for biotransformation. The drug concentrations were measured before and after a 12-h incubation by liquid-chromatography-coupled mass spectrometry (LC–MS); conditions: 2 µM
[16] = bacteroides thetaiotaomicron, 12 h, 2 µM; remark: listed apart in the source
Description: The drug is tested on Bacteroides thetaiotaomicron strain: 7330 for biotransformation. The drug concentrations were measured before and after a 12-h incubation by liquid-chromatography-coupled mass spectrometry (LC–MS)

[17] = The drug is tested on Bacteroides dorei strain: DSM17855 for biotransformation. The drug concentrations were measured before and after a 12-h incubation by liquid-chromatography-coupled mass spectrometry (LC–MS); conditions: phocaeicola dorei, 2 µM
[18] = The drug is tested on Bacteroides vulgatus strain: ATCC8482 for biotransformation. The drug concentrations were measured before and after a 12-h incubation by liquid-chromatography-coupled mass spectrometry (LC–MS); conditions: phocaeicola vulgatus, 2 µM
[19] = bacteroides fragilis, 12 h, 2 µM; remark: listed apart in the source
Description: The drug is tested on Bacteroides fragilis strain: DS-208 for biotransformation. The drug concentrations were measured before and after a 12-h incubation by liquid-chromatography-coupled mass spectrometry (LC–MS)

[20] = The drug is tested on Alistipes indistinctus strain: DSM22520 for biotransformation. The drug concentrations were measured before and after a 12-h incubation by liquid-chromatography-coupled mass spectrometry (LC–MS); conditions: 2 µM

Row | Compound | Bacterial Biotransformation [1] | Bacterial Biotransformation [2] | Bacterial Biotransformation [3] | Bacterial Biotransformation [4] | Bacterial Biotransformation [5] | Bacterial Biotransformation [6] | Bacterial Biotransformation [7] | Bacterial Biotransformation [8] | Bacterial Biotransformation [9] | Bacterial Biotransformation [10] | Bacterial Biotransformation [11] | Bacterial Biotransformation [12] | Bacterial Biotransformation [13] | Bacterial Biotransformation [14] | Bacterial Biotransformation [15] | Bacterial Biotransformation [16] | Bacterial Biotransformation [17] | Bacterial Biotransformation [18] | Bacterial Biotransformation [19] | Bacterial Biotransformation [20]
1 | CCCC(=O)Nc1ccc(OCC(O)CNC(C)C)c(C(C)=O)c1 (stereo unspecified) [ACEBUTOLOL] | Compound NOT metabolized | Compound NOT metabolized | Compound NOT metabolized | Compound NOT metabolized | Compound NOT metabolized | Compound NOT metabolized | Compound NOT metabolized | Compound NOT metabolized | Compound NOT metabolized | Compound NOT metabolized | Compound NOT metabolized | Compound NOT metabolized | Compound NOT metabolized | Compound NOT metabolized | Compound NOT metabolized | Compound NOT metabolized | Compound NOT metabolized | – | – | –
2 | C=CCc1ccccc1OCC(O)CNC(C)C (stereo unspecified) [ALPRENOLOL] | Compound NOT metabolized | Compound NOT metabolized | Compound NOT metabolized | Compound NOT metabolized | Compound NOT metabolized | Compound NOT metabolized | – | Compound NOT metabolized | – | Compound NOT metabolized | Compound NOT metabolized | Compound metabolized | Compound NOT metabolized | Compound NOT metabolized | Compound NOT metabolized | Compound NOT metabolized | Compound NOT metabolized | Compound NOT metabolized | Compound NOT metabolized | Compound NOT metabolized
3 | CN(C)C(=O)Oc1cc(OC(=O)N(C)C)cc(C(O)CNC(C)(C)C)c1 (stereo unspecified) [BAMBUTEROL] | Compound NOT metabolized | Compound NOT metabolized | Compound NOT metabolized | Compound NOT metabolized | Compound NOT metabolized | Compound NOT metabolized | Compound NOT metabolized | Compound NOT metabolized | Compound NOT metabolized | Compound NOT metabolized | Compound NOT metabolized | – | Compound NOT metabolized | Compound NOT metabolized | Compound NOT metabolized | Compound NOT metabolized | Compound NOT metabolized | Compound NOT metabolized | Compound NOT metabolized | –
4 | CC(C)NCC(O)COc1ccc(CCOCC2CC2)cc1 (stereo unspecified) [BETAXOLOL] | Compound NOT metabolized | Compound NOT metabolized | Compound NOT metabolized | Compound NOT metabolized | Compound NOT metabolized | Compound NOT metabolized | Compound NOT metabolized | Compound NOT metabolized | Compound NOT metabolized | Compound NOT metabolized | – | – | Compound NOT metabolized | Compound NOT metabolized | Compound NOT metabolized | Compound NOT metabolized | – | – | Compound NOT metabolized | Compound NOT metabolized
5 | CN1CCC[C@@H]1CCO[C@](C)(c1ccccc1)c1ccc(Cl)cc1.O=C(O)/C=C/C(=O)O [CLEMASTINE FUMARATE] | Compound NOT metabolized | Compound metabolized | Compound NOT metabolized | Compound metabolized | Compound metabolized | Compound NOT metabolized | Compound metabolized | Compound NOT metabolized | – | Compound NOT metabolized | Compound metabolized | – | Compound NOT metabolized | Compound NOT metabolized | Compound metabolized | Compound metabolized | Compound metabolized | Compound metabolized | Compound metabolized | Compound NOT metabolized
6 | CNC(=C[N+](=O)[O-])NCCSCc1ccc(CN(C)C)o1 [RANITIDINE] | Compound metabolized | Compound NOT metabolized | Compound NOT metabolized | Compound NOT metabolized | Compound metabolized | Compound metabolized | Compound metabolized | Compound metabolized | Compound metabolized | Compound metabolized | Compound metabolized | Compound metabolized | Compound NOT metabolized | Compound NOT metabolized | Compound NOT metabolized | Compound NOT metabolized | Compound metabolized | Compound metabolized | Compound metabolized | –
